Source: patent publication US20150258043A1, “USE OF SPHINGOID LONG CHAIN BASES AND THEIR ANALOGS IN TREATING AND PREVENTING BACTERIAL INFECTIONS” (YEDA RESEARCH AND DEVELOPMENT CO. LTD., priority 2012, published 2015)
Like-named read-outs stand apart in the source and are kept apart here.

How the values were obtained:
[1] = test system: P. aeruginosa strain 762; test: Effect of LCBs on P. aeruginosa growth in vitro (colony counts); format: cell-based, Pseudomonas aeruginosa; settings: Pseudomonas aeruginosa
Experimental: P. aeruginosa strain 762 or ATCC 27853 were grown in LB medium at 37° C. until the early logarithmic phase (OD550 0.2). Bacteria were then diluted in PBS to a concentration of 5×10^3 CFU/ml. Stock solutions of sphingolipids (5 mM in 7.5% n-Octyl-β-D-Glucopyranoside (OGP) or in DMSO were prepared by sonication. Sphingolipids were added to the bacteria (0.1-50 μM in 0.075% OGP or 1% DMSO). Bacteria were incubated with sphingolipids for 2 hr at 37° C. and a sample of 200 μl bacteria solution were plated on LB agar plates, incubated overnight at 37° C. and colonies were counted.
The direct effect of sphingosine and other sphingoid long chain bases (LCBs) on the growth of P. aeruginosa was examined in vitro. Bacteria were incubated with a variety of LCBs and the EC50 values on bacterial growth were determined (Table 1).

[2] = test system: sphingosine and ceramide on tracheal and bronchial epithelial cells; test: Sphingosine and ceramide levels in airway epithelial cells after inhalation (immunostaining, in situ kinase assays); design: species or system mouse; settings: CF (and CerS2 null) mice, in vivo inhalation
Experimental: Sphingosine levels were determined in the trachea and lung of wildtype (wt), Cftr- and CerS2 null mice (Teichgräber, V. et al. Nat Med 2008, 14, 382-391; Pewzner-Jung et al. J Biol Chem. 2010 Apr. 2; 285(14):10902-10) and human nasal tissues by (i) confocal microscopy analysis of paraffin sections stained with Cy3-coupled anti-sphingosine antibodies and (ii) by newly developed biochemical assays that employed sphingosine kinase assays to determine sphingosine in freshly isolated tracheal epithelial cells and on the surface of tracheal epithelial cells in situ. In the latter experiments the intact trachea was carefully opened and incubated with sphingosine kinase in the presence of [^32]PγATP. Lipids were extracted and the concentration of sphingosine-1-[^32]P was determined. In addition, surface sphingosine was immunoprecipitated from the surface of tracheal epithelial cells by binding of anti-sphingosine antibodies to the intact inner surface of the trachea, followed by washing, lysis, immobilization of immune complexes, extraction of bound sphingosine and quantification of sphingosine by kinase assays. […]
Mice were sacrificed and the trachea immediately removed. […] The TLC plates were exposed to radiography films, the spots were removed from the plates, and the incorporation of [^32P] into ceramide was measured by liquid scintillation counting. […]

[3] = superscript reference marks; cited from earlier work

Q: With `CCCCCCCCCCCCC/C=C/[C@@H](O)[C@@H](N)CO` (stereo in doubt) [D-erythro-Sphingosine, (2S,3R)-2-aminooctadec-4-ene-1,3-diol] as the compound, how does the EC50 ([1]; 762, Table 3, Example 3, method of Example 2, n=3 for each analog, given as ranges, read-out: EC50) read?
A: 0.5 to 1 µM

Q: What about the EC50 ([1]; P. aeruginosa strain 762, 2 hrs at 37° C. in 0.075% OGP, colonies counted, at least 3 independent experiments, read-out: EC50 (μM) ± S.D.) of the same compound?
A: 0.5 ± 0.1 µM

Q: What about the “sphingosine levels on airway epithelial cells after inhalation” value [2] of the same compound?
A: restored sphingosine levels

Q: What about the “pK (in PBS)” value [3] of the same compound?
A: 6.7^1,2
